According to ChEMBL document CHEMBL3885861, “Open TG-GATES”:

Species: Rattus norvegicus
Experiment: Open TG-GATES - Regimen: Daily Repeat
Type: toxicity, organism-based, Sprague-Dawley
Set-up: regimen Daily Repeat, gender Male, age 6 weeks
Details: in vivo, po, 300 mg/kg, route gavage, dose level Middle; for APTT / Bas / Eos / Fbg / Hb / Ht / Lym / MCH / MCHC / MCV / Mono / Neu / PT / Plat / RBC / Ret / WBC: tissue Blood; for KIDNEY_L / KIDNEY_R / KIDNEY_TOTAL: tissue Kidney; for LIVER: tissue Liver; for A/G / ALP / ALT / AST / BUN / CRE / Ca / Cl / DBIL / GLC / IP / K / LDH / Na / PL / RALB / TBIL / TC / TG / TP / gamma-GTP: tissue Plasma

Structure (SMILES): CCCCNC(=O)NS(=O)(=O)c1ccc(C)cc1 [TOLBUTAMIDE]
- TERMINAL_BW (72 h, time 3 day): 233.2 g
- APTT (72 h, time 3 day): 17 s
- Bas (72 h, time 3 day): 0%
- Eos (72 h, time 3 day): 1%
- Fbg (72 h, time 3 day): 287.2 mg/dL
- Hb (72 h, time 3 day): 13.7 g/dL
- Ht (72 h, time 3 day): 41.8%
- Lym (72 h, time 3 day): 80%
- MCH (72 h, time 3 day): 20.8 pg
- MCHC (72 h, time 3 day): 32.8%
- MCV (72 h, time 3 day): 63.2 fL
- Mono (72 h, time 3 day): 2.6%
- Neu (72 h, time 3 day): 15.6%
- PT (72 h, time 3 day): 13 s
- Plat (72 h, time 3 day): 122.8 x10_4/uL
- RBC (72 h, time 3 day): 661 x10_4/ul
- Ret (72 h, time 3 day): 6.3%
- WBC (72 h, time 3 day): 108 x10_2/uL
- KIDNEY_L (72 h, time 3 day): 1 g
- KIDNEY_R (72 h, time 3 day): 1 g
- KIDNEY_TOTAL (72 h, time 3 day): 2 g
- LIVER (72 h, time 3 day): 10.8 g
- A/G (72 h, time 3 day): 0.9
- ALP (72 h, time 3 day): 1683.8 IU/L
- ALT (72 h, time 3 day): 49.4 IU/L
- AST (72 h, time 3 day): 70.2 IU/L
- BUN (72 h, time 3 day): 13.2 mg/dL
- CRE (72 h, time 3 day): 0.2 mg/dL
- Ca (72 h, time 3 day): 11.1 mg/dL
- Cl (72 h, time 3 day): 105 meq/L
- DBIL (72 h, time 3 day): 0.01 mg/dL
- GLC (72 h, time 3 day): 176.6 mg/dL
- IP (72 h, time 3 day): 8.2 mg/dL
- K (72 h, time 3 day): 4 meq/L
- LDH (72 h, time 3 day): 69.8 IU/L
- Na (72 h, time 3 day): 142.4 meq/L
- PL (72 h, time 3 day): 151 mg/dL
- RALB (72 h, time 3 day): 2.6 g/dL
- TBIL (72 h, time 3 day): 0.062 mg/dL
- TC (72 h, time 3 day): 79.2 mg/dL
- TG (72 h, time 3 day): 86.4 mg/dL
- TP (72 h, time 3 day): 5.5 g/dL
- gamma-GTP (72 h, time 3 day): 1 IU/L
- TERMINAL_BW ([…], time 7 day): 265.6 g
- TERMINAL_BW ([…], time 14 day): 327.4 g
- TERMINAL_BW ([…], time 28 day): 387.4 g
- APTT ([…], time 7 day): 17.8 s
- Bas ([…], time 7 day): 0.4%
- Eos ([…], time 7 day): 1%
- Fbg ([…], time 7 day): 287 mg/dL
- Hb ([…], time 7 day): 14 g/dL
- Ht ([…], time 7 day): 42.1%
- Lym ([…], time 7 day): 81.6%
- MCH ([…], time 7 day): 20.9 pg
- MCHC ([…], time 7 day): 33.3%
- MCV ([…], time 7 day): 62.5 fL
- Mono ([…], time 7 day): 2.2%
- Neu ([…], time 7 day): 14.6%
- PT ([…], time 7 day): 12.7 s
- Plat ([…], time 7 day): 118.8 x10_4/uL
- RBC ([…], time 7 day): 674.4 x10_4/ul
- Ret ([…], time 7 day): 5.3%
- WBC ([…], time 7 day): 114.8 x10_2/uL
- APTT ([…], time 14 day): 18 s
- Bas ([…], time 14 day): 0.4%
- Eos ([…], time 14 day): 1%
- Fbg ([…], time 14 day): 290.4 mg/dL
- Hb ([…], time 14 day): 14.6 g/dL
- Ht ([…], time 14 day): 44.4%
- Lym ([…], time 14 day): 78.2%
- MCH ([…], time 14 day): 19.6 pg
- MCHC ([…], time 14 day): 32.8%
- MCV ([…], time 14 day): 59.8 fL
- Mono ([…], time 14 day): 1.8%
- Neu ([…], time 14 day): 18.4%
- PT ([…], time 14 day): 12.8 s
- Plat ([…], time 14 day): 120.3 x10_4/uL
- RBC ([…], time 14 day): 743.4 x10_4/ul
- Ret ([…], time 14 day): 4.3%
- WBC ([…], time 14 day): 98.4 x10_2/uL
- APTT ([…], time 28 day): 20 s
- Bas ([…], time 28 day): 0.6%
- Eos ([…], time 28 day): 1%
- Fbg ([…], time 28 day): 266.6 mg/dL
- Hb ([…], time 28 day): 15.4 g/dL
- Ht ([…], time 28 day): 45.4%
- Lym ([…], time 28 day): 81.4%
- MCH ([…], time 28 day): 18.7 pg
- MCHC ([…], time 28 day): 34%
- MCV ([…], time 28 day): 55.2 fL
- Mono ([…], time 28 day): 2.4%
- Neu ([…], time 28 day): 13.8%
- PT ([…], time 28 day): 13.4 s
- Plat ([…], time 28 day): 102.9 x10_4/uL
- RBC ([…], time 28 day): 823.4 x10_4/ul
- Ret ([…], time 28 day): 2.2%
- WBC ([…], time 28 day): 134 x10_2/uL
- KIDNEY_L ([…], time 7 day): 1.1 g
- KIDNEY_R ([…], time 7 day): 1.1 g
- KIDNEY_TOTAL ([…], time 7 day): 2.2 g
- KIDNEY_L ([…], time 14 day): 1.3 g
- KIDNEY_R ([…], time 14 day): 1.3 g
- KIDNEY_TOTAL ([…], time 14 day): 2.5 g
- KIDNEY_L ([…], time 28 day): 1.4 g
- KIDNEY_R ([…], time 28 day): 1.4 g
- KIDNEY_TOTAL ([…], time 28 day): 2.8 g
- LIVER ([…], time 7 day): 12.4 g
- LIVER ([…], time 14 day): 14.8 g
- LIVER ([…], time 28 day): 15.5 g
- A/G ([…], time 7 day): 0.8
- ALP ([…], time 7 day): 1624 IU/L
- ALT ([…], time 7 day): 42 IU/L
- AST ([…], time 7 day): 65.2 IU/L
- BUN ([…], time 7 day): 16.6 mg/dL
- CRE ([…], time 7 day): 0.2 mg/dL
- Ca ([…], time 7 day): 10.8 mg/dL
- Cl ([…], time 7 day): 103.8 meq/L
- DBIL ([…], time 7 day): 0.008 mg/dL
- GLC ([…], time 7 day): 204.8 mg/dL
- IP ([…], time 7 day): 7.5 mg/dL
- K ([…], time 7 day): 4.1 meq/L
- LDH ([…], time 7 day): 57.4 IU/L
- Na ([…], time 7 day): 141 meq/L
- PL ([…], time 7 day): 161 mg/dL
- RALB ([…], time 7 day): 2.5 g/dL
- TBIL ([…], time 7 day): 0.052 mg/dL
- TC ([…], time 7 day): 76.4 mg/dL
- TG ([…], time 7 day): 135.8 mg/dL
- TP ([…], time 7 day): 5.6 g/dL
- gamma-GTP ([…], time 7 day): 1 IU/L
- A/G ([…], time 14 day): 0.8
- ALP ([…], time 14 day): 1281 IU/L
- ALT ([…], time 14 day): 41.4 IU/L
- AST ([…], time 14 day): 69 IU/L
- BUN ([…], time 14 day): 16 mg/dL
- CRE ([…], time 14 day): 0.2 mg/dL
- Ca ([…], time 14 day): 10.9 mg/dL
- Cl ([…], time 14 day): 104.2 meq/L
- DBIL ([…], time 14 day): 0.012 mg/dL
- GLC ([…], time 14 day): 193.4 mg/dL
- IP ([…], time 14 day): 6.9 mg/dL
- K ([…], time 14 day): 4 meq/L
- LDH ([…], time 14 day): 55.4 IU/L
- Na ([…], time 14 day): 142.2 meq/L
- PL ([…], time 14 day): 158.6 mg/dL
- RALB ([…], time 14 day): 2.7 g/dL
- TBIL ([…], time 14 day): 0.06 mg/dL
- TC ([…], time 14 day): 76.4 mg/dL
- TG ([…], time 14 day): 127.2 mg/dL
- TP ([…], time 14 day): 5.8 g/dL
- gamma-GTP ([…], time 14 day): 1 IU/L
- A/G ([…], time 28 day): 0.8
- ALP ([…], time 28 day): 1057.2 IU/L
- ALT ([…], time 28 day): 39.8 IU/L
- AST ([…], time 28 day): 65.6 IU/L
- BUN ([…], time 28 day): 16 mg/dL
- CRE ([…], time 28 day): 0.2 mg/dL
- Ca ([…], time 28 day): 10.7 mg/dL
- Cl ([…], time 28 day): 104.2 meq/L
- DBIL ([…], time 28 day): 0.01 mg/dL
- GLC ([…], time 28 day): 190 mg/dL
- IP ([…], time 28 day): 6.7 mg/dL
- K ([…], time 28 day): 3.9 meq/L
- LDH ([…], time 28 day): 55 IU/L
- Na ([…], time 28 day): 142.8 meq/L
- PL ([…], time 28 day): 157.2 mg/dL
- RALB ([…], time 28 day): 2.8 g/dL
- TBIL ([…], time 28 day): 0.06 mg/dL
- TC ([…], time 28 day): 74.6 mg/dL
- TG ([…], time 28 day): 152.2 mg/dL
- TP ([…], time 28 day): 6.1 g/dL
- gamma-GTP ([…], time 28 day): 1 IU/L
